Experimental data from patent US10202370B2, “Benzimidazole derivatives as selective proteine kinase inhibitors” (AB SCIENCE, priority 2013, dated 2019).

Target: c-kit WT (Homo sapiens (Human), UniProt P10721)
Assay: Proliferation assay (CellTiter-Blue) on BaF3 Kit WT cell line
Format: cell-based
Conditions: BaF3 Kit WT cell line (murine Ba/F3 expressing Human Kit WT, with murine SCF), 48 hours
Experimental: Procedures of C-Kit WT Inhibition Assays:
Colorimetric cell proliferation and viability assay (reagent CellTiter-Blue purchased from Promega cat N°G8081) was performed on BaF3 Kit WT cell line.
A total of 2.10^4 cells/50 μl were seeded per well of a 96-wells plate. Treatment was initiated by addition of a 2× drug solution of ½ serial dilutions ranging from 0 to 10 μM. After incubating for 48 hours at 37° C., 10 μl of a ½ dilution of CellTiter-Blue reagent was added to each well and the plates were returned to the incubator for an additional 4 hours. The fluorescence intensity from the CellTiter-Blue reagent is proportional to the number of viable cells and data were recorded (544Ex/590Em) using a POLARstar OMEGA microplate reader (BMG LabteckSarl). A background control without cells was used as a blank. The positive control of the assay corresponds to the cell proliferation obtained in the absence of drug treatment (100% proliferation). Each sample was done in triplicate. The results were expressed as a percentage of the proliferation obtained in absence of treatment. All drugs were prepared as 20 mM stock solutions in DMSO and conserved at −80° C. Drug dilutions were made fresh in medium before each experiment. A DMSO control was included in each experiment.
The cell line expressing Human Kit WT was derived from the murine IL3-dependent Ba/F3 proB lymphoid cells. Ba/F3 Kit WT cells were maintained in RPMI medium containing 10% FCS and supplemented with 250 ng/ml of recombinant murine SCF.

Sequence of c-kit WT (P10721 26-976): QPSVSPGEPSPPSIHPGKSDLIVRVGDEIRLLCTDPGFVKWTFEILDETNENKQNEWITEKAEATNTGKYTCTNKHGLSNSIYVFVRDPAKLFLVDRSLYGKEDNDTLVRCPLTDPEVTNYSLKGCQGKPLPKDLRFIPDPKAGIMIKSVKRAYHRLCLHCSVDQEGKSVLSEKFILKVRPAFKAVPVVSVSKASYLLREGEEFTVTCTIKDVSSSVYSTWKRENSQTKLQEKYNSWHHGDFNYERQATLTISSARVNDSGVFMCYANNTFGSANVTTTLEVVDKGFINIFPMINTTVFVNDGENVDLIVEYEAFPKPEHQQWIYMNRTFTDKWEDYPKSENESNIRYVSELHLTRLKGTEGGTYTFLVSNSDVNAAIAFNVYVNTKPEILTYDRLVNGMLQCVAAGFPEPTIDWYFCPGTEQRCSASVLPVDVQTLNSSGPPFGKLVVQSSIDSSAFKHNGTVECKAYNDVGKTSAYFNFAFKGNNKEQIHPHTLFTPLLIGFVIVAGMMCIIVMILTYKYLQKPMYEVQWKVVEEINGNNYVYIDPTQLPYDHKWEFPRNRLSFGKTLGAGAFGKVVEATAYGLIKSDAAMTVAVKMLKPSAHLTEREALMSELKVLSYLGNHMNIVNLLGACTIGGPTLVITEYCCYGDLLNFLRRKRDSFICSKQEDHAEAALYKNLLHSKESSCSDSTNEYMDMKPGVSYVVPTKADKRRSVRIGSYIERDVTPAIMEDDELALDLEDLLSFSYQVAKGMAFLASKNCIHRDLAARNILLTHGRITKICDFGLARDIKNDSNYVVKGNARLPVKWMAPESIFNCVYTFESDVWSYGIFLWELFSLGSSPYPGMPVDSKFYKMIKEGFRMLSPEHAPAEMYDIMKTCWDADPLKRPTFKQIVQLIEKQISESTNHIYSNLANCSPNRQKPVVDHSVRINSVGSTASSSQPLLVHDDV

Cc1cc2c(cc1Nc1nc(-c3ccc(C#N)cc3)cs1)nc(-c1cccc(C(F)(F)F)c1)n2C [Compound 114, 4-{2-[1,6-Dimethyl-2-(3-trifluoromethyl-phenyl)-1H-benzoimidazol-5-ylamino]-thiazol-4-yl}-benzonitrile]
IC50: ≤ 1000 nM

Cc1cc2c(cc1Nc1nc(-c3cccnc3)cs1)nc(-c1cccc(C(C)(C)C)c1)n2C [Compound 145, [2-(3-tert-Butyl-phenyl)-1,6-dimethyl-1H-benzoimidazol-5-yl]-(4-pyridin-3-yl-thiazol-2-yl)-amine]
IC50: ≤ 1000 nM

Cc1cc2c(cc1Nc1nc(-c3ccncc3)cs1)nc(-c1cccc(F)c1)n2C [Compound 124, [2-(3-Fluoro-phenyl)-1,6-dimethyl-1H-benzoimidazol-5-yl]-(4-pyridin-4-yl-thiazol-2-yl)-amine]
IC50: ≤ 1000 nM

Cc1cc2nc(-c3cccc(C(F)(F)F)c3)[nH]c2cc1Nc1nccc(-c2cccnc2)n1 [Compound 008]
IC50: ≤ 1000 nM

Cc1cc2nc(-c3cccc(OC(F)(F)F)c3)[nH]c2cc1Nc1nc(-c2cccnc2)cs1 [Compound 026]
IC50: ≤ 1000 nM

Cc1cc2nc(-c3cccc(C(F)(F)F)c3)[nH]c2cc1Nc1ncc(-c2cccnc2)o1 [Compound 007, [6-Methyl-2-(3-trifluoromethyl-phenyl)-3H-benzoimidazol-5-yl]-(5-pyridin-3-yl-oxazol-2-yl)-amine]
IC50: 1000 to 10000 nM

CCn1c(-c2cccc(C(F)(F)F)c2)nc2cc(Nc3nc(-c4ccncc4)cs3)c(C)cc21 [Compound 105, [1-Ethyl-6-methyl-2-(3-trifluoromethyl-phenyl)-1H-benzoimidazol-5-yl]-(4-pyridin-4-yl-thiazol-2-yl)-amine]
IC50: ≤ 1000 nM

Cc1cc2nc(-c3cccc(C(F)(F)F)c3)[nH]c2cc1Nc1nc(-c2ccc(C#N)cc2)cs1 [Compound 070, 4-{2-[6-Methyl-2-(3-trifluoromethyl-phenyl)-3H-benzoimidazol-5-ylamino]-thiazol-4-yl}-benzonitrile]
IC50: ≤ 1000 nM

Cc1cc2nc(-c3cccc(Cl)c3)[nH]c2cc1Nc1nccc(-c2cccnc2)n1 [Compound 031, [2-(3-Chloro-phenyl)-6-methyl-3H-benzoimidazol-5-yl]-(4-pyridin-3-yl-pyrimidin-2-yl)-amine]
IC50: ≤ 1000 nM

Cc1cc2nc(Cc3cccc(F)c3)[nH]c2cc1Nc1ncc(-c2ccncc2)o1 [Compound 052, [2-(3-Fluoro-benzyl)-6-methyl-3H-benzoimidazol-5-yl]-(5-pyridin-4-yl-oxazol-2-yl)-amine]
IC50: 1000 to 10000 nM

Cc1cccc(-c2nc3cc(C)c(Nc4nc(-c5cncnc5)cs4)cc3[nH]2)c1 [Compound 066, (6-Methyl-2-m-tolyl-1H-benzoimidazol-5-yl)-(4-pyrimidin-5-yl-thiazol-2-yl)-amine]
IC50: 1000 to 10000 nM

Cc1cc2nc(-c3cccc(C(F)F)c3)[nH]c2cc1Nc1nc(-c2ccc(C#N)cc2)cs1 [Compound 069, 4-{2-[2-(3-Difluoromethyl-phenyl)-6-methyl-3H-benzoimidazol-5-ylamino]-thiazol-4-yl}-benzonitrile]
IC50: ≤ 1000 nM

Cc1cc2nc(-c3cc(C(C)(C)C)ccc3OCCN(C)C)[nH]c2cc1Nc1nccc(-c2cccnc2)n1 [Compound 036, {2-[5-tert-Butyl-2-(2-dimethylamino-ethoxy)-phenyl]-6-methyl-3H-benzoimidazol-5-yl}-(4-pyridin-3-yl-pyrimidin-2-yl)-amine]
IC50: 1000 to 10000 nM

COc1cccc(-c2nc3cc(Nc4nc(-c5ccc(C#N)cc5)cs4)c(C)cc3[nH]2)c1 [Compound 128, 4-{2-[2-(3-Methoxy-phenyl)-6-methyl-1H-benzoimidazol-5-ylamino]-thiazol-4-yl}-benzonitrile]
IC50: ≤ 1000 nM

Cc1cc2nc(-c3ccccc3C)[nH]c2cc1Nc1nc(-c2cccnc2)cs1 [Compound 001, (6-Methyl-2-o-tolyl-3H-benzoimidazol-5-yl)-(4-pyridin-3-yl-thiazol-2-yl)-amine]
IC50: 1000 to 10000 nM

CCn1c(-c2cccc(C)c2)nc2cc(Nc3nc(-c4ccncc4)cs3)c(C)cc21 [Compound 104, (1-Ethyl-6-methyl-2-m-tolyl-1H-benzoimidazol-5-yl)-(4-pyridin-4-yl-thiazol-2-yl)-amine]
IC50: ≤ 1000 nM

Cc1cc2nc(-c3cccc(C(F)F)c3)[nH]c2cc1Nc1nc(-c2ccncc2)cs1 [Compound 045, [2-(3-Difluoromethyl-phenyl)-6-methyl-3H-benzoimidazol-5-yl]-(4-pyridin-4-yl-thiazol-2-yl)-amine]
IC50: ≤ 1000 nM

Cc1cc2nc(-c3ccc(CN4CCN(C)CC4)cc3)[nH]c2cc1Nc1nccc(-c2cccnc2)n1 [Compound 009, {6-Methyl-2-[4-(4-methyl-piperazin-1-ylmethyl)-phenyl]-3H-benzoimidazol-5-yl}-(4-pyridin-3-yl-pyrimidin-2-yl)-amine]
IC50: 1000 to 10000 nM

Cc1cc2c(cc1Nc1nc(-c3ccncc3)cs1)nc(-c1cccc(C(F)(F)F)c1)n2C(C)C [Compound 101, [1-Isopropyl-6-methyl-2-(3-trifluoromethyl-phenyl)-1H-benzoimidazol-5-yl]-(4-pyridin-4-yl-thiazol-2-yl)-amine]
IC50: ≤ 1000 nM

Cc1cc2nc(-c3cccc(C(F)F)c3)[nH]c2cc1Nc1nc(-c2cncnc2)cs1 [Compound 061, [2-(3-Difluoromethyl-phenyl)-6-methyl-3H-benzoimidazol-5-yl]-(4-pyrimidin-5-yl-thiazol-2-yl)-amine]
IC50: ≤ 1000 nM

Cc1cc2nc(-c3ccc(CN4CCN(C)CC4)cc3)[nH]c2cc1Nc1nc(-c2cccnc2)cs1 [Compound 003, {6-Methyl-2-[4-(4-methyl-piperazin-1-ylmethyl)-phenyl]-3H-benzoimidazol-5-yl}-(4-pyridin-3-yl-thiazol-2-yl)-amine]
IC50: ≤ 1000 nM

Cc1cc2nc(-c3ccc(F)cc3)[nH]c2cc1Nc1nc(-c2cccnc2)cs1 [Compound 060, [2-(4-Fluoro-phenyl)-6-methyl-1H-benzoimidazol-5-yl]-(4-pyridin-3-yl-thiazol-2-yl)-amine]
IC50: 1000 to 10000 nM

Cc1cc2nc(-c3cccc(Cl)c3)[nH]c2cc1Nc1nc(-c2cccnc2)cs1 [Compound 032, [2-(3-Chloro-phenyl)-6-methyl-3H-benzoimidazol-5-yl]-(4-pyridin-3-yl-thiazol-2-yl)-amine]
IC50: ≤ 1000 nM

Cc1cc2[nH]c(-c3cccc(S(C)(=O)=O)c3)nc2cc1Nc1nc(-c2ccc(C#N)cc2)cs1 [Compound 131, 4-{2-[2-(3-Methanesulfonyl-phenyl)-6-methyl-1H-benzoimidazol-5-ylamino]-thiazol-4-yl}-benzonitrile]
IC50: ≤ 1000 nM

Cc1cc2nc(-c3ccc(C(F)(F)F)cc3)[nH]c2cc1Nc1nc(-c2cccnc2)cs1 [Compound 021, [6-Methyl-2-(4-trifluoromethyl-phenyl)-3H-benzoimidazol-5-yl]-(4-pyridin-3-yl-thiazol-2-yl)-amine]
IC50: 1000 to 10000 nM

Cc1cc2c(cc1Nc1nc(-c3cccnc3)cs1)nc(-c1cccc(C(F)(F)F)c1)n2C [Compound 085, [1,6-Dimethyl-2-(3-trifluoromethyl-phenyl)-1H-benzoimidazol-5-yl]-(4-pyridin-3-yl-thiazol-2-yl)-amine]
IC50: ≤ 1000 nM

Cc1cc2nc(-c3ccc(C(F)(F)F)cc3)[nH]c2cc1Nc1nc(-c2ccc(C(N)=O)cc2)cs1 [Compound 072, 4-{2-[6-Methyl-2-(4-trifluoromethyl-phenyl)-3H-benzoimidazol-5-ylamino]-thiazol-4-yl}-benzamide]
IC50: ≤ 1000 nM
